Common to all, as to assay type: in vivo
Test [1] concerns P. cynomolgi liver stage hypnozoites. Put plainly: Radical cure test in relapsed Rhesus monkeys. On the procedure: Monkeys were treated with chloroquine (10 mg/kg/day) by oral for 7 consecutive days and the test compounds by IM for 3 consecutive days after the parasitemia level reached 5,000 parasites/mm^3. Chloroquine (CQ) at 10 mg/kg/day×7 days eliminates the blood stage parasites, but not the liver stage hypnozoites. Compounds with antihypnozoite activity will delay the relapse or radically cure the infection. To evaluate the radical curative properties, daily blood samples were followed for 21 days, 3 times per week for 4 weeks, and then 2 times weekly until 100 days after the last day of test compound administration. Parasite clearance should occur in all animals treated with chloroquine. Relapse is expected in the control group. Relapse in the treated group indicates failure of the test compounds. […] Relapses of the control monkeys were treated with chloroquine once daily for 7-days and observed for a second relapse. Relapse in experimental animals and the second relapse of the control monkeys were treated with the standard 7-day oral CQ (chloroquine) and primaquine (1.78 mg base/kg). After standard treatment, blood smears were monitored daily for 4 consecutive days of negative results and 2 times weekly for 2 weeks.

A further test has as its system P. berghei sporozoites. Description: Causal prophylactic activity, exoerythrocytic (EE) mouse model, P. berghei sporozoites. As to conditions: 3 days treated. On the procedure: (§1) New compounds were assessed for their causal prophylactic activity in two different exoerythrocytic (EE) mouse models using sporozoites of either P. berghei or P. yoelii. The procedures have been previously described (see, for example, Q. Zhang et al., J. Med. Chem. 48 (20): 6472-6481 (2005)). Briefly, each compound was ground with a mortar and pestle and suspended in hydroxyethylcellulose and Tween 80 for compounds to be administered PO and those given SC were suspended in peanut oil. Each compound was prepared at different dose levels. Compounds were administered either PO or SC to mice once a day for three consecutive days, to mice on the day before, 4 hours before, and the day after being inoculated intraperitoneally with P. yoelii sporozoites or P. berghei sporozoites intravenously. Whole body weights were taken on Day 0 and Day 6 then approximately twice a week for 31 days. A blood film was taken on Day 5 and then approximately twice a week for 31 days. Mice losing greater than about 20% of their body weight were sacrificed. A compound was considered active if only low levels of parasites were found (less than about 10%) in blood films taken on Day 5 or any biweekly for 31 days. Mice alive on Day 31 with no parasites found in any blood films were considered protected.

Another test has as its system P. yoelii sporozoites. Description: Causal prophylactic activity, exoerythrocytic (EE) mouse model, P. yoelii sporozoites. As to conditions: for P. yoelli # Mice Protected/# Mice Used: 3 days treated; for Causal prophylactic protection in mice (comparison in words): Table 5, compared to control compound 3 or between P. yoelii and P. berghei. As to the method:
as §1

The subject of another test is P. cynomolgi sporozoites. Description: Causal prophylactic test in P. cynomolgi sporozoites challenged Rhesus monkeys. As to conditions: for Causal prophylactic activity in Rhesus test (in words): 30 mg/kg/day for 3 days by IM; for Patency (Days Post-innoculation): one value per monkey, 30 mg/kg 1 daily for 3 days, IM (days -1, 0, +1), 30 mg/kg. On the procedure: Among the new compounds prepared, representative compounds 5e, 6c, 7a and 7c were assessed for causal prophylactic and radical cure activities in Rhesus monkeys. To protect the Rhesus monkeys, a test compound must pass a mouse toxicity test at 300 mg/kg/day for 3 consecutive days by SC administration, and mice must not lose more than 5% body weight within 30 days after receiving the test compound.
The causal prophylactic and radical curative antimalarial activity of the new derivatives 5e, 6c, 7a and 7c were assessed in a P. cynomolgi sporozoites challenged Rhesus monkey model. Detailed procedure of sporozoites harvest and drug tests have been described previously (J. Guan et al., Bioorg. Med. Chem. 23, 699-704 (2005); Q. Zhang et al., J. Med. Chem. 48 (20): 6472-6481 (2005)) Briefly, monkeys were randomized to control groups and experimental groups. A donor monkey was inoculated intravenously with 1.3 mL freshly-thawed frozen infected red blood cells (DA310). When the donor monkey developed gametocytemia, mosquito feedings were conducted on days 13 and 14 after inoculation. The donor monkey was treated with intramuscular chloroquine hydrochloride (CQ) 10 mg/kg, once a day after the second mosquito feeding and continued for 7 days. On day 0 (beginning of assay), each of the monkeys was inoculated intravenously with 1-ml inoculum of suspension containing about 1.0×10^6 (one million) P. cynomolgi sporozoites harvested from Anopheles dirus mosquitoes' salivary glands previously fed on the donor monkey (See, for example, Corcoran, K D, et al. (1993) Am. J. Trop. Med. Hyg. 49:473 477, and Shanks, G D, et al. (2001) Clinical Infectious Diseases 33:1968 1974). All monkeys received treatment on days −1, 0 and 1. The control monkeys received dimethylsulfoxide (DMSO) and the experimental animals received testing compound intramusculary. After the assay, all monkeys were given standard malarial treatment. Specifically, seven-day primaquine (1.78 mg/kg) and chloroquine (10 mg/kg) were administered to treat all monkeys.

[2] abbreviates: one value per monkey, 30 mg/kg 1 daily for 3 days IM with CQ 10 mg/kg x7 po.

SMILES strings stand for the structures. Where “and” joins values, the source holds several entries; their conditions need not be identical. Identical values can stand only once.

Regarding `CCN(CC)CCCC(C)Nc1ccnc2cc(Cl)ccc12` (centres unmarked) [CQ, chloroquine, reference compound], the “Relapse, Days Post-treatment” value in test [1] (one value per monkey, CQ 10 mg/kg x7 po alone (Drug 2 none)) came out at 9 days.

Turning to `CC(C)N1C(=O)C(=O)N=C1/N=C(\NC(=O)OC(C)(C)C)Nc1ccc(Cl)c(Cl)c1` [Compound 3, reference compound], the “P. berghei # Mice Protected/# Mice Used” value in the test on P. berghei sporozoites (Dose/day 40 mg/kg) is 2/10; in the test with P. berghei sporozoites (Dose/day 160 mg/kg) it was 4/10. The entries for the “P. yoelli # Mice Protected/# Mice Used” value with P. yoelii sporozoites (Dose/day 10 mg/kg), with P. yoelii sporozoites (Dose/day 40 mg/kg) and in the test with P. yoelii sporozoites (Dose/day 160 mg/kg) were 3/5, 2/5 and 4/5, respectively.

On to `CC(C)N1C(=O)C(=O)N=C1N=C(NOCc1ccccc1)Nc1ccc(Cl)c(Cl)c1` [Compound 5e], for which the “P. berghei # Mice Protected/# Mice Used” value in the test on P. berghei sporozoites (Dose/day 40 mg/kg) was 0/5. For the same molecule, in the test with P. berghei sporozoites (Dose/day 160 mg/kg), the “P. berghei # Mice Protected/# Mice Used” value is on record as 0/5. In the test with P. cynomolgi sporozoites, the “Causal prophylactic activity in Rhesus test (in words)” value (shortened to “Causal prophylactic activity”) is reported as “about equal in causal prophylactic activity to 7c”; the “Patency (Days Post-innoculation)” value is 27 days and 29 days. In addition, the “Delayed relapse, Days Post-treatment” value in test [1] (setting [2]) was 35 days and 33 days.

Turning to `CC(C)NC(=NC1=NC(=O)C(=O)N1C(C)C)Nc1ccc(Cl)c(Cl)c1` [Compound 6c], the “P. berghei # Mice Protected/# Mice Used” value in the test on P. berghei sporozoites (Dose/day 40 mg/kg) is 0/5. In the test on P. berghei sporozoites (Dose/day 160 mg/kg), the “P. berghei # Mice Protected/# Mice Used” value was 1/5. In the test on P. cynomolgi sporozoites, the “Causal prophylactic activity” value is listed as “most potent causal prophylactic activity”; the “Patency (Days Post-innoculation)” value was 62 days and 94 days. Moreover, in test [1] (setting [2]), the “Delayed relapse, Days Post-treatment” value is 66 days and 91 days. For the same molecule, the “Radical curative efficacy (in words)” value in test [1] (test compound IM for 3 days with CQ po for 7 days) is “more active than 5e, 7a and 7c”.

Take `CC(C)N1C(=O)C(=O)N=C1N=C(NCC(C)(C)C)Nc1ccc(Cl)c(Cl)c1` [Compound 6e]: the “P. berghei # Mice Protected/# Mice Used” value in the test on P. berghei sporozoites (Dose/day 40 mg/kg) is 0/5; in the test with P. berghei sporozoites (Dose/day 160 mg/kg), 1/5. In addition, the “P. yoelli # Mice Protected/# Mice Used” value in the test with P. yoelii sporozoites (Dose/day 10 mg/kg), in the test on P. yoelii sporozoites (Dose/day 40 mg/kg) and in the test on P. yoelii sporozoites (Dose/day 160 mg/kg) was 5/5 each time. Further, in the test with P. yoelii sporozoites, the “Causal prophylactic protection in mice (comparison in words)” value is recorded as “enhanced protection”.

As to `CC(C)N1C(=O)C(=O)N=C1N=C(Nc1ccccc1)Nc1ccc(Cl)c(Cl)c1` [Compound 6f], the “P. berghei # Mice Protected/# Mice Used” value in the test with P. berghei sporozoites (Dose/day 40 mg/kg) and in the test on P. berghei sporozoites (Dose/day 160 mg/kg) was 0/5 in each case. The “P. yoelli # Mice Protected/# Mice Used” value in the test on P. yoelii sporozoites (Dose/day 10 mg/kg), in the test with P. yoelii sporozoites (Dose/day 40 mg/kg) and with P. yoelii sporozoites (Dose/day 160 mg/kg) was 5/5 in each case. Moreover, in the test on P. yoelii sporozoites, the “Causal prophylactic protection in mice (comparison in words)” value is “enhanced protection”.

With `CCC(CC)C(=O)NC(=NC1=NC(=O)C(=O)N1C(C)C)Nc1ccc(Cl)c(Cl)c1` [Compound 7a], in the test on P. cynomolgi sporozoites, the “Causal prophylactic activity” value is listed as “weak causal prophylactic activity”; the “Patency (Days Post-innoculation)” value is 13 days and 17 days. For the same molecule, the “Delayed relapse, days longer as compared with control animals” value in test [1] (30 mg/kg 1 daily for 3 days IM with CQ 10 mg/kg x7 po) is 7 days. Further, in test [1] (30 mg/kg 1 daily for 3 days IM with CQ 10 mg/kg x7 po, no relapse after 100 days = radically cured), the “Results (radical cure, in words)” value is “One out of two monkeys treated with 7a was cured and Cure”. The “Delayed relapse, Days Post-treatment” value in test [1] (setting [2]) worked out at 16 days.

Turning to `CC(C)N1C(=O)C(=O)N=C1N=C(NC(=O)C(C)(C)C)Nc1ccc(Cl)c(Cl)c1` [Compound 7c], in the test on P. cynomolgi sporozoites, the “Causal prophylactic activity” value was “superior protective activity than that of 7a”; the “Patency (Days Post-innoculation)” value was 21 days and 40 days. Besides, the “Delayed relapse, days longer as compared with control animals” value in test [1] (40 mg/kg 1 daily for 3 days IM with CQ 10 mg/kg x7 po) is 20 days and 23 days. Further, the “Delayed relapse, Days Post-treatment” value in test [1] (one value per monkey, 40 mg/kg 1 daily for 3 days IM with CQ 10 mg/kg x7 po) is 29 days and 32 days.
